{"source": "patent US9302999B2", "about": "“Substituted triazoles as herbicides” (E. I. DU PONT DE NEMOURS AND COMPANY, priority 2012, dated 2016)", "format_in_all_cases": "in vivo", "key": {"[1]": {"tested_on": "Russian thistle (Salsola iberica)", "assay": "Test D pre-/postemergence: Russian thistle", "method_in_brief": "(§1)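 We sprayed chemicals in a surfactant-containing solvent onto silt loam at planting (preemergence) and onto 1- to 4-leaf seedlings (postemergence). Fourteen to 21 days later, each species was rated visually from 0 to 100 relative to controls.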"}, "[2]": {"tested_on": "surinam grass (Brachiaria decumbens)", "assay": "Test C pre-/postemergence: surinam grass", "method_in_brief": "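Visual injury scored 0–100 (100 = complete control) against untreated controls after 13–15 greenhouse days. Surfactant-containing solvent formulations applied either to soil after sowing (loam/sand) or over 1- to 4-leaf plants, 2–18 cm tall.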"}, "[3]": {"tested_on": "ryegrass, Italian (Italian ryegrass, Lolium multiflorum)", "assay": "Test D pre-/postemergence: ryegrass, Italian", "method_in_brief": "as §1"}, "[4]": {"tested_on": "chickweed (common chickweed, Stellaria media)", "assay": "Test D pre-/postemergence: chickweed", "method_in_brief": "as §1"}, "[5]": {"tested_on": "buckwheat, wild (wild buckwheat, Polygonum convolvulus)", "assay": "Test D pre-/postemergence: buckwheat, wild", "method_in_brief": "as §1"}, "[6]": {"tested_on": "barley (winter barley, Hordeum vulgare)", "assay": "Test C postemergence: barley", "method_in_brief": "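Seedlings are raised in pots of peat-based medium to 2–18 cm (1- to 4-leaf stage). The formulated compound is then applied postemergence. Plants stay in the greenhouse for 13 to 15 days and are rated visually against controls, where 0 means no effect and 100 complete control.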"}, "rice (Oryza sativa)": {"tested_on": "rice (Oryza sativa)", "assay": "Test C flooded paddy test: rice", "conditions": "Oryza sativa, scale 0 to 100 (0 no effect, 100 complete control), read-out: Plant response rating, Rice", "method_in_brief": "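Greenhouse plants treated at the 2-leaf stage by dosing the flood water (3 cm depth, maintained) were compared with controls after 13 to 15 days and rated 0 to 100, where 100 means complete control; a dash marks no test result.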"}, "[7]": {"tested_on": "blackgrass (Alopecurus myosuroides)", "assay": "Test D pre-/postemergence: blackgrass", "method_in_brief": "as §1"}, "[8]": {"conditions": "Postemergence, 31 g ai/ha, scale 0 to 100 (0 no effect, 100 complete control)"}, "[9]": {"conditions": "Postemergence, 62 g ai/ha, scale 0 to 100 (0 no effect, 100 complete control)"}, "[10]": {"conditions": "Postemergence, 125 g ai/ha, scale 0 to 100, 0 no effect, 100 complete control"}, "[11]": {"conditions": "Postemergence, 250 g ai/ha, scale 0 to 100 (0 no effect, 100 complete control)"}, "[12]": {"conditions": "Postemergence, 16 g ai/ha, scale 0 to 100"}, "[13]": {"conditions": "Preemergence, 16 g ai/ha, scale 0 to 100 (0 no effect, 100 complete control)"}, "[14]": {"conditions": "Preemergence, 31 g ai/ha, scale 0 to 100 (0 no effect, 100 complete control)"}, "[15]": {"conditions": "Preemergence, 62 g ai/ha, scale 0 to 100"}, "[16]": {"conditions": "Preemergence, 125 g ai/ha, scale 0 to 100"}, "[17]": {"conditions": "Preemergence, 250 g ai/ha, scale 0 to 100"}}}
{"smiles": "Cc1nn(-c2ccc(F)cc2)nc1Oc1ccnc(C(F)(F)F)c1", "note": "[Compound 129, 4-[[2-(4-fluorophenyl)-5-methyl-2H-1,2,3-triazol-4-yl]oxy]-2-(trifluoromethyl)pyridine]", "values": [{"measurement": "Plant response rating: Russian Thistle", "setting": "[1]; [8]", "value": 98}, {"measurement": "Plant response rating: Russian Thistle", "setting": "[1]; [9]", "value": 100}, {"measurement": "Plant response rating: Russian Thistle", "setting": "[1]; [10]", "value": 100}, {"measurement": "Plant response rating: Russian Thistle", "setting": "[1]; [11]", "value": 100}, {"measurement": "Plant response rating, Russian Thistle", "setting": "[1]; [12]", "value": 98}, {"measurement": "Plant response rating, Russian Thistle", "setting": "[1]; [13]", "value": 80}, {"measurement": "Plant response rating, Russian Thistle", "setting": "[1]; [14]", "value": 100}, {"measurement": "Plant response rating, Russian Thistle", "setting": "[1]; [15]", "value": 100}, {"measurement": "Plant response rating, Russian Thistle", "setting": "[1]; [16]", "value": 100}, {"measurement": "Plant response rating, Russian Thistle", "setting": "[1]; [17]", "value": 100}, {"measurement": "Plant response rating, Surinam Grass", "setting": "[2]; [8]", "value": 45}, {"measurement": "Plant response rating, Surinam Grass", "setting": "[2]; [9]", "value": 45}, {"measurement": "Plant response rating, Surinam Grass", "setting": "[2]; [10]", "value": 50}, {"measurement": "Plant response rating, Surinam Grass", "setting": "[2]; Postemergence, 250 g ai/ha, scale 0 to 100", "value": 60}, {"measurement": "Plant response rating, Surinam Grass", "setting": "[2]; Preemergence, 31 g ai/ha, scale of 0 to 100, 0 is no effect, 100 is complete control", "value": 95}, {"measurement": "Plant response rating, Surinam Grass", "setting": "[2]; Preemergence, 62 g ai/ha, scale of 0 to 100, 0 is no effect, 100 is complete control", "value": 95}, {"measurement": "Plant response rating, Surinam Grass", "setting": "[2]; Preemergence, 125 g ai/ha, scale 0 to 100, 0 no effect, 100 complete control", "value": 98}, {"measurement": "Plant response rating, Surinam Grass", "setting": "[2]; Preemergence, 250 g ai/ha, scale 0 to 100, 0 no effect, 100 complete control", "value": 98}, {"measurement": "Plant response rating: Ryegrass, Italian", "setting": "[3]; [8]", "value": 5}, {"measurement": "Plant response rating: Ryegrass, Italian", "setting": "[3]; [9]", "value": 5}, {"measurement": "Plant response rating: Ryegrass, Italian", "setting": "[3]; [10]", "value": 10}, {"measurement": "Plant response rating: Ryegrass, Italian", "setting": "[3]; [11]", "value": 15}, {"measurement": "Plant response rating, Ryegrass, Italian", "setting": "[3]; [12]", "value": 5}, {"measurement": "Plant response rating, Ryegrass, Italian", "setting": "[3]; [13]", "value": 0}, {"measurement": "Plant response rating, Ryegrass, Italian", "setting": "[3]; [14]", "value": 5}, {"measurement": "Plant response rating, Ryegrass, Italian", "setting": "[3]; [15]", "value": 10}, {"measurement": "Plant response rating, Ryegrass, Italian", "setting": "[3]; [16]", "value": 70}, {"measurement": "Plant response rating, Ryegrass, Italian", "setting": "[3]; [17]", "value": 90}, {"measurement": "Plant response rating: Chickweed", "setting": "[4]; [8]", "value": 90}, {"measurement": "Plant response rating: Chickweed", "setting": "[4]; [9]", "value": 100}, {"measurement": "Plant response rating: Chickweed", "setting": "[4]; [10]", "value": 100}, {"measurement": "Plant response rating: Chickweed", "setting": "[4]; [11]", "value": 100}, {"measurement": "Plant response rating, Chickweed", "setting": "[4]; [12]", "value": 75}, {"measurement": "Plant response rating, Chickweed", "setting": "[4]; [13]", "value": 0}, {"measurement": "Plant response rating, Chickweed", "setting": "[4]; [14]", "value": 100}, {"measurement": "Plant response rating, Chickweed", "setting": "[4]; [15]", "value": 100}, {"measurement": "Plant response rating, Chickweed", "setting": "[4]; [16]", "value": 100}, {"measurement": "Plant response rating, Chickweed", "setting": "[4]; [17]", "value": 100}, {"measurement": "Plant response rating: Buckwheat, Wild", "setting": "[5]; [8]", "value": 60}, {"measurement": "Plant response rating: Buckwheat, Wild", "setting": "[5]; [9]", "value": 80}, {"measurement": "Plant response rating: Buckwheat, Wild", "setting": "[5]; [10]", "value": 100}, {"measurement": "Plant response rating: Buckwheat, Wild", "setting": "[5]; [11]", "value": 100}, {"measurement": "Plant response rating, Buckwheat, Wild", "setting": "[5]; [12]", "value": 60}, {"measurement": "Plant response rating, Buckwheat, Wild", "setting": "[5]; [13]", "value": 0}, {"measurement": "Plant response rating, Buckwheat, Wild", "setting": "[5]; [14]", "value": 0}, {"measurement": "Plant response rating, Buckwheat, Wild", "setting": "[5]; [15]", "value": 0}, {"measurement": "Plant response rating, Buckwheat, Wild", "setting": "[5]; [16]", "value": 70}, {"measurement": "Plant response rating, Buckwheat, Wild", "setting": "[5]; [17]", "value": 100}, {"measurement": "Plant response rating, Barley", "setting": "[6]; 31 g ai/ha, scale 0 to 100 (0 no effect, 100 complete control)", "value": 30}, {"measurement": "Plant response rating, Barley", "setting": "[6]; 62 g ai/ha, scale 0 to 100 (0 no effect, 100 complete control)", "value": 35}, {"measurement": "Plant response rating, Barley", "setting": "[6]; 125 g ai/ha, scale 0 to 100, 0 no effect, 100 complete control", "value": 45}, {"measurement": "Plant response rating, Barley", "setting": "[6]; 250 g ai/ha, scale 0 to 100", "value": 50}, {"measurement": "plant injury at 125 g/ha", "setting": "rice (Oryza sativa); Flood (flooded paddy test), 125 g ai/ha, visual rating after 13 to 15 days", "value": 40, "unit": "%"}, {"measurement": "plant injury at 250 g/ha", "setting": "rice (Oryza sativa); Flood (flooded paddy test), 250 g ai/ha, visual rating after 13 to 15 days", "value": 50, "unit": "%"}, {"measurement": "plant injury at 31 g/ha", "setting": "rice (Oryza sativa); Flood, 31 g ai/ha", "value": 20, "unit": "%"}, {"measurement": "plant injury at 62 g/ha", "setting": "rice (Oryza sativa); Flood, 62 g ai/ha", "value": 30, "unit": "%"}, {"measurement": "Plant response rating: Blackgrass", "setting": "[7]; [8]", "value": 10}, {"measurement": "Plant response rating: Blackgrass", "setting": "[7]; [9]", "value": 10}, {"measurement": "Plant response rating: Blackgrass", "setting": "[7]; [10]", "value": 50}, {"measurement": "Plant response rating: Blackgrass", "setting": "[7]; [11]", "value": 70}, {"measurement": "Plant response rating, Blackgrass", "setting": "[7]; [12]", "value": 5}, {"measurement": "Plant response rating, Blackgrass", "setting": "[7]; [13]", "value": 0}, {"measurement": "Plant response rating, Blackgrass", "setting": "[7]; [14]", "value": 0}, {"measurement": "Plant response rating, Blackgrass", "setting": "[7]; [15]", "value": 30}, {"measurement": "Plant response rating, Blackgrass", "setting": "[7]; [16]", "value": 100}, {"measurement": "Plant response rating, Blackgrass", "setting": "[7]; [17]", "value": 100}]}
